# From US20080260774A1, “Alpha-galactosyl ceramide analogs and their use as immunotherapies” (priority 2007, published 2008)
# Tests used:
# [1] = tested on: BALB/c mice; test: Mouse serum cytokines/chemokines after IV, SubQ or IM injection; format: in vivo
# [2] = tested on: syngeneic lung cancer (TC1) cells; test: Lung cancer model in mice (TC1, IV inoculation); format: in vivo, mouse; conditions: IV administration
# [3] = tested on: H5 of avian influenza viruses (pHA); format: in vivo, mouse; conditions: mouse, in vivo
# [4] = tested on: human naïve NKTs (CD161^+CD3^+); test: Cytokine/chemokine secretion by human naïve CD161+CD3+ NKTs co-cultured with autologous immature CD14+ DCs; format: cell-based
# [5] = tested on: naïve CD161^+/CD3^+ NKTs; test: Human NKT TCR activation (phosphoproteins), glycolipid presented by HeLa, HeLa-CD1d or iDCs, 10 μg/ml; format: cell-based; conditions: for intracellular phospho-CD3ε / phospho-CREB / phospho-ERK1/2: 10 μg/ml
# [6] = tested on: BALB/c mice; test: Expansion/activation of mouse splenocyte subpopulations 72 h after injection; format: in vivo
# [7] = tested on: syngeneic breast cancer (4T1); test: Breast cancer model in mice (4T1, SubQ inoculation); format: in vivo, mouse; conditions: SubQ delivery
# [8] = tested on: FLU-A virus serotype H1N1 (WSN); test: Influenza virus H1N1 (WSN) infection in BALB/c mice; conditions: mouse, in vivo
# [9] = tested on: FLU-A virus serotype H1N1 (WSN); test: Cytopathetic effect / virus titer in MDCK cells infected with H1N1 (WSN); format: cell-based
# Experimental: FIG. 60(A-B) show the cytopathetic effect (CPE) of Madin-Darby canine kidney (MDCK) cells in vitro. MDCK cells were pretreated with vehicle, α-GalCer or one of the α-GalCer analogs C13, C14 or C16 at 10 μg/ml for four hours, followed by infection with FLU-A virus serotype H1N1 (WSN) at 10TCID50.
# BALB/c mice were treated via intranasal route with control, α-GalCer (C1) or the α-GalCer analogs C13, C14 or C16 at one hour prior to virus challenge with H1N1 (WSN). […] In general, certain α-GalCer analogs may exert direct anti-viral effects, or act indirectly via immune stimulation. […] MDCK cells were pretreated with vehicle, α-GalCer or one of the α-GalCer analogs C13, C14 or C16 at 10 μg/ml for four hours, followed by infection with FLU-A virus serotype H1N1 (WSN) at 10TCID50.
# [10] = tested on: human monocyte-derived DCs; test: Maturation of human monocyte-derived dendritic cells
# [11] = tested on: C57BL/6 mice; test: Expansion of NKT subsets in spleens of C57BL/6 mice; format: in vivo; conditions: C57BL/6 Wt, 72 h post IV injection, 0.1 μg per mouse
# [12] = tested on: TC1 tumor; test: Tumor infiltrating lymphocytes in lung cancer (TC1) by flow cytometry; format: in vivo; conditions: day 21; 0.1 μg/mouse, once/week; normalized to DMSO
# [13] = tested on: B16 melanoma; test: Tumor infiltrating lymphocytes in B16 melanoma by flow cytometry; format: in vivo; conditions: day 21; 0.1 μg/mouse, once/week; normalized to DMSO
# [14] = tested on: Sphingomonas capsulata; test: Antibacterial efficacy in Sphingomonas capsulata infected mice; format: in vivo, mouse; conditions: 50 μg/kg
# Excerpt: Sphingomonas capsulata is a common environmental bacterial strain that is found in many places such as the air and water. It can be easily identified on nutrient agar plates because of its yellow colony color. […] Since the antibacterial activities of glycolipid antigens are mediated through the activation of NKT cells by glycolipid bound-CD1-d molecules, evaluation of the antibacterial efficacies using the disease model of Sphingomonas capsulata infection will focus on the impact of the NKT mediated pathway that is activated by glycolipid bindings. Six to eight week old female C57BL/6 mice were injected IP with Sphingomonas capsulate cells. […] Twenty-four hours after bacterial infection, livers were removed from mice and homogenized. Colony formation units (CFU) of Sphingomonas capsulate in liver homogenates were determined by plating diluted samples on nutrient plates. Colonies were counted after incubation for 48 hours at 37° C. […] To confirm the antibacterial efficacies of these α-GalCer analogs, another study was conducted to repeat the study by treating infected mice with 50 μg/kg in the same disease model. […] Six to eight week old female C57BL/6 mice were injected IP with 5×10^8 Sphingomonas capsulate cells. Mice were grouped into treatment and control groups with 4-6 mice per group. Four hours after the infection, mice in the treatment group were injected IP with testing α-GalCer analogs at 50 or 100 μg/kg, and the control group mice were injected with same volumes of PBS. Twenty-four hours after bacterial infection, mice from all groups were sacrificed. Livers were removed from mice and homogenized in 0.9% NaCl, 0.02% Tween 80 using tissue homogenizers. Colony formation units (CFU) of Sphingomonas capsulate in liver homogenates were determined by plating diluted samples on nutrient plates. Colonies were counted after incubation for 48 hours at 37° C.
structure (smiles),measurement,setting,value
CCCCCCCCCCCCCCCCCCCCCCCCCC(=O)N[C@@H](CO[C@H]1O[C@H](CO)[C@H](O)[C@H](O)[C@H]1O)[C@H](O)[C@H](O)CCc1ccccc1 [C13],IFN-γ/IL-4 ratio (TH1/TH2 bias),"[1]; 2 hours, IV route, compared with C1",less TH2 responses than C1
same,"serum IL-2, IL-12, MIP-1β and MCP-1",[1]; IV administration,"striking rises in IL-2, IL-12, MIP-1β and MCP-1"
same,anti-cancer efficacy compared with C1,[2],significantly greater anti-cancer efficacy than C1
same,adjuvant activities in enhancing the anti-HAc antibody titer,[3],better adjuvant activities than the others in enhancing the antibody titer
same,effectiveness as adjuvant,[3],particularly effective as adjuvants
same,secretion of IFN-γ,"[4]; 10 μg/ml, 18 hour culture, compared with α-GalCer",significantly greater secretion of IFN-γ than α-GalCer
same,induction of chemokines,[4]; compared with α-GalCer,"striking increase in chemokines such as MIP-11, MCP-1, and IL-8"
same,IFN/IL-4 ratio (TH1/TH2 bias),[4]; normalized to DMSO control,more TH1-biased
same,TCR activation,"[5]; CD1d-dependent, HeLa-CD1d or DCs",stronger in TCR activation than compounds C1 and C17
same,intracellular phospho-CD3ε,[5]; presented by DCs,17.3 folds
same,phospho-CREB,[5]; presented by DCs,158 folds increase
same,intracellular phospho-CD3ε,[5]; presented by HeLa-CD1d cells,7.3 folds of control
same,phospho-CREB,[5]; presented by HeLa-CD1d cells,41 folds expression
same,phospho-ERK1/2,[5]; with DCs,35 folds
same,phospho-ERK1/2,[5]; with HeLa-CD1d cells,6.6 folds increase
same,total and mature DCs,"[6]; FIGS. 26B, 28B and 30B, compared with C1",significantly greater rises in total and mature DCs than C1
same,CD8^+/CD4^+ ratio,"[6]; FIGS. 26H, 28H and 30H",more potent than C1
same,splenocyte expansion,"[6]; IM administration, 72 hours",greater effects than C1
same,expansion of splenocytes,"[6]; IV administration, 72 hours",greater potency than C1
same,CD4^+ T cells,[6]; SubQ route,more active over control
same,CD8^+ T cells,[6]; SubQ route,more activity than C1
same,B cell expansion/activation,"[6]; mouse, in vivo",significant activities
same,CD8^+ T cell expansion/activation,"[6]; mouse, in vivo",more active than C1
same,NK and NKT expansion/activation,"[6]; mouse, in vivo",comparable activities as C1
same,expansion/activation of NKs and NKTs,"[6]; mouse, in vivo",best capacity for expansion/activation of NKs and NKTs
same,effects on survival compared with C1,[7],did not differ significantly from that of C1
same,suppression of tumor size compared with C1,[7],significantly greater suppression of tumor size than C1
same,tumor growth and survival compared to control,[7],able to suppress tumor growth and prolong survival as compared to control
same,cumulative proportion of survival,[8],prolonged survival
same,survival,[8],significantly enhanced survival
same,entry/replication of H1N1 virus (virus titer),[9],slight inhibition of the entry/replication of H1N1 virus in vitro
same,maturation of human monocyte-derived DCs,[10],promotes maturation of human monocyte-derived DCs
CCCCCCCCCCCCCC[C@@H](O)[C@@H](O)[C@H](CO[C@H]1O[C@H](CO)[C@H](O)[C@H](O)[C@H]1O)NC(=O)CCCCCCCCCCc1ccc(-c2ccc(F)cc2)cc1 [C30],total number of NKTs and its two subtypes NKT1 and NKT2,[11],increase of total number of NKTs
same,"number of tumor infiltrating lymphocytes (CD3+ T, CD8 T, NKs, NKTs)",[12],"significantly significant increase in the number of TH1-biased tumor infiltrating lymphocytes in lung cancer, as compared with both control and α-GalCer"
same,"number of tumor infiltrating lymphocytes (CD3+ T, CD8 T, NKs, NKTs)",[13],"significantly significant increase in the number of TH1-biased tumor infiltrating lymphocytes in melanoma, as compared with both control and α-GalCer"
same,CFU numbers (in lungs),[14],significant in comparison to the untreated group
